Structures can show the parent of a compound that is named as a salt. Where two headings read alike, the source gives them in different places.
Experiments:
[1] = target: Recombinant human CD38 (Homo sapiens (Human), UniProt P28907); assay: Human CD38 hydrolase assay (fluorescence, ε-NAD substrate); assay type: biochemical; conditions: recombinant human CD38 0.8 nM, 4 μM ε-NAD, 30 min preincubation at 25° C., pH 7.4
Procedure: (§1) The ability of test compounds to inhibit human CD38 hydrolase activity was measured in a fluorescence-based assay using non-physiological NAD^+ substrate analogue 1,N^6-etheno NAD^+ (ε-NAD). Recombinant human CD38 (0.8 nM) was preincubated with test compounds in 384-well black microplates for 30 min at 25° C. in PBS (—Ca^2+/Mg^2+) containing 0.005% BSA (pH 7.4). CD38 hydrolase activity was initiated by addition of 4 μM ε-NAD, which yields the fluorescent product 1,N^6-etheno ADP-ribose. Formation of fluorescent product was followed using ClarioStar Plus (BMG) microplate reader by reading fluorescence (excitation λ=300 nm; emission λ=410 nm) at two time points, one immediately after substrate addition (t=0) and one at 10 min (t=10).
(§2) Data was analysed by subtracting the values detected at t=0 from t=10 to correct for variation in baseline fluorescence. Fluorescence values were converted to percent inhibition using the average of high signal (CD38 and ε-NAD) and low signal (CD38 and ε-NAD in the presence of a tool CD38 inhibitor) control wells. IC50 values were determined from a 10-point, half log concentration response curve with a four-parameter logistic equation.

[2] = target: Recombinant mouse CD38 (Mus musculus (Mouse), UniProt P56528); assay: Mouse CD38 hydrolase assay (fluorescence, ε-NAD substrate); assay type: biochemical; conditions: recombinant mouse CD38 0.4 nM, 12 μM ε-NAD, 30 min preincubation at 25° C., pH 7.4
Procedure: as §1, with “inhibit mouse” for “inhibit human”, “Recombinant mouse” for “Recombinant human”, “CD38 (0.4” for “CD38 (0.8”, “of 12” for “of 4”, “at 6” for “at 10”, “min (t=6).” for “min (t=10).”
as §2, with “t=6” for “t=10”, “fluorescence, and fluorescence” for “fluorescence. Fluorescence”

[3] = PK brain permeability in C57BL/6 mice after single oral gavage; assay type: in vivo; conditions: 2 hours post dose; for concentration at 2 h: po, 10 mg/kg
Procedure: The distribution of compounds into the brain in vivo was determined in C57BL/6 mice following single oral (po) gavage administration.
Test compounds were formulated at 1 mg/mL in 0.5% HPMC E4 M, 0.2% Tween 80 in water to achieve solutions or homogenous suspensions suitable for po administration.
Formulations were administered to 3 male C57BL/6 mice at a volume of 10 mL/kg resulting in a dose level of 10 mg/kg. Blood samples were collected at 1 and 2 hours post dose into tubes containing K2EDTA as anticoagulant, processed to plasma and stored at −60° C. or lower until LC-MS/MS analysis. Brains were harvested 2 hours post dose, rinsed with saline, dried, weighed and homogenised under ice cold conditions. Brain homogenates were stored at −60° C. or lower until LC-MS/MS analysis.
Dose formulation concentrations were verified using a LC-UV or LC-MS/MS method. Test compound concentrations in plasma and brain homogenate were quantitatively determined using LC-MS/MS methods developed in individual matrices against calibration curves with QC samples included and acceptance criteria as per CRO SOPs. Concentrations in brain homogenate were corrected for the dilution factor used to prepare the homogenate to give concentrations in whole brain tissue.
Plasma and brain concentration versus time data were reported and plotted in excel. The brain to plasma ratio at 2 hours post dose was calculated for each animal using the following equation:
Brain:plasma=brain concentration (ng/g) at 2 h/plasma concentration (ng/mL) at 2 h
As only unbound test compound is available to exert an effect on the target, unbound plasma (Cp,u) and unbound brain (Cb,u) concentrations were calculated by correcting the total concentrations for the unbound fraction in plasma (fu,p) or brain (fu,b) determined from in vitro plasma protein or brain tissue binding assays using the following equations: […]
The unbound partitioning coefficient (Kpu,u) was then calculated based on the ratio of Cb,u to Cp,u using the following equation: […]
In these studies, mice were orally administrated a 10 mg/kg dose and sacrificed 2 hours post dose and tissue samples (brain homogenate and plasma) were analyzed subsequently as described above.

Chain of Recombinant human CD38 (P28907 whole entry): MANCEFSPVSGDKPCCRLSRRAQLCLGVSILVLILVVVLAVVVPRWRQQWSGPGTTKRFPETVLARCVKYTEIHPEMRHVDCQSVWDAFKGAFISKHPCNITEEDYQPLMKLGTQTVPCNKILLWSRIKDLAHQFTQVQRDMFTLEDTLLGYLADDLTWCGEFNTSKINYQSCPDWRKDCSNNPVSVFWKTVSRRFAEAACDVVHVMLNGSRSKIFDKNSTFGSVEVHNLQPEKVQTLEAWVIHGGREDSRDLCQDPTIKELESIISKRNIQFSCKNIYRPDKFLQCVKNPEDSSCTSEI
Chain of Recombinant mouse CD38 (P56528 whole entry): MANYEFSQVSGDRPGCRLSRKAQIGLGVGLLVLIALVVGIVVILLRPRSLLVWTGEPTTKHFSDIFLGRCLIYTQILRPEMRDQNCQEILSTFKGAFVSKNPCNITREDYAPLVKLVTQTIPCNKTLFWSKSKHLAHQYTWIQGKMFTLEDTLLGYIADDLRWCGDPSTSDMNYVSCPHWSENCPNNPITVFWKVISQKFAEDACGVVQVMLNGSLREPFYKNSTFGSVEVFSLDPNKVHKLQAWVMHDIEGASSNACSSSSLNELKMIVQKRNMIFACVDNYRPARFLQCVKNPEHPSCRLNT

Structure (SMILES) | IC50 [1] | IC50 [2] | other results
Cc1cc(C(=O)N[C@H]2CC[C@H](N3CC[C@@H](F)C3)CC2)nc(-n2ccnc2)n1 [Example 13, N-((1r,4r)-4-((R)-3-fluoropyrrolidin-1-yl)cyclohexyl)-2-(1H-imidazol-1-yl)-6-methyl-pyrimidine-4-carboxamide] | ≤ 100 nM | ≤ 40 nM | 
Cc1cc(C(=O)N[C@H]2CC[C@H](NCCF)CC2)nc(-n2ccnc2)n1 [Example 9, N-((1r,4r)-4-((2-fluoroethyl)amino)cyclohexyl)-2-(1H-imidazol-1-yl)-6-methyl-pyrimidine-4-carboxamide formate] | ≤ 1000 nM | ≤ 40 nM | 
Cc1cc(C(=O)N[C@H]2CC[C@H](C(=O)NCC(F)(F)F)CC2)nc(-n2ccnc2)n1 [Example 26, 2-(1H-imidazol-1-yl)-6-methyl-N-((1r,4r)-4-((2,2,2-trifluoroethyl)carbamoyl)cyclohexyl)pyrimidine-4-carboxamide] | ≤ 40 nM | ≤ 40 nM | 
CCN[C@H]1CC[C@H](NC(=O)c2cc(C)nc(-n3ccnc3)n2)CC1 [Example 19, N-((1r,4r)-4-(ethylamino)cyclohexyl)-2-(1H-imidazol-1-yl)-6-methyl-pyrimidine-4-carboxamide Formate] | ≤ 100 nM | ≤ 40 nM | 
Cc1cc(C(=O)N[C@H]2CC[C@H](N(C)CC(F)(F)F)CC2)nc(-n2ccnc2)n1 [Example 7, 2-(1H-imidazol-1-yl)-6-methyl-N-((1r,4r)-4-(methyl(2,2,2-trifluoroethyl)amino)cyclohexyl)pyrimidine-4-carboxamide] | ≤ 100 nM |  | 
Cc1cc(C(=O)N[C@H]2CC[C@H](N3CC[C@H](F)C3)CC2)nc(-n2ccnc2)n1 [Example 12, N-((1s,4r)-4-((S)-3-fluoropyrrolidin-1-yl)cyclohexyl)-2-(1H-imidazol-1-yl)-6-methyl-pyrimidine-4-carboxamide] | ≤ 100 nM | ≤ 40 nM | 
Cc1cc(C(=O)N[C@H]2CC[C@H](NCC(F)(F)F)CC2)nc(-c2cncs2)n1 [Example 5, 6-methyl-2-(thiazol-5-yl)-N-((1r,4r)-4-((2,2,2-trifluoroethyl)amino)cyclohexyl)pyrimidine-4-carboxamide] | ≤ 1000 nM | ≤ 40 nM | 
Cc1cc(C(=O)N[C@H]2CC[C@H](NCC(F)F)CC2)nc(-c2cncs2)n1 [Example 8, N-((1r,4r)-4-((2,2-difluoroethyl)amino)cyclohexyl)-6-methyl-2-(thiazol-5-yl)pyrimidine-4-carboxamide] | ≤ 1000 nM |  | 
O=C(N[C@H]1CC[C@H](NCC(F)(F)F)CC1)c1nc(-n2ccnc2)nc2cc[nH]c12 [Example 29, 2-(1H-imidazol-1-yl)-N-((1r,4r)-4-((2,2,2-trifluoroethyl)amino)cyclohexyl)-5H-pyrrolo[3,2-d]pyrimidine-4-carboxamide, reference compound] |  |  | concentration at 2 h ([3]; male, C57BL/6, mouse, brain, read-out: total brain conc.): 1770 nM; concentration at 2 h ([3]; male, C57BL/6, mouse, brain, total corrected for unbound fraction in brain, read-out: free brain conc.): 224 nM; Kpu,u (unbound brain/plasma partition coefficient) at 2 h ([3]; male, C57BL/6, mouse, brain/plasma, oral 10 mg/kg, read-out: Kpu,u (unbound partitioning coefficient, Cb,u/Cp,u)): 0.18; concentration at 2 h ([3]; male, C57BL/6, mouse, plasma, read-out: total plasma conc.): 11100 nM; concentration at 2 h ([3]; male, C57BL/6, mouse, plasma, total corrected for unbound fraction in plasma, read-out: free plasma conc.): 1260 nM; brain exposure (in words) ([3]; oral 10 mg/kg, comment on Table 3, with lower Kpu,u values): much reduced brain exposure
Cc1cc(C(=O)N[C@H]2CC[C@H](CNCC(F)(F)F)CC2)nc(-n2ccnc2)n1 [Example 25, 2-(1H-imidazol-1-yl)-6-methyl-N-((1r,4r)-4-(((2,2,2-trifluoroethyl)amino)methyl)cyclohexyl)pyrimidine-4-carboxamide] | ≤ 40 nM | ≤ 40 nM | 
Cc1cc(C(=O)N[C@H]2CC[C@H](N[C@H](C)C(F)(F)F)CC2)nc(-n2ccnc2)n1 [Example 23, 2-(1H-imidazol-1-yl)-6-methyl-N-((1R,4r)-4-(((R)-1,1,1-trifluoropropan-2-yl)amino)cyclohexyl)pyrimidine-4-carboxamide] | ≤ 40 nM | ≤ 40 nM | 
O=C(N[C@H]1CC[C@H](NCC(F)(F)F)CC1)c1cc(C2CC2)cc(-n2ccnc2)n1 [Example 20, 4-cyclopropyl-6-(1H-imidazol-1-yl)-N-((1r,4r)-4-((2,2,2-trifluoroethyl)amino)cyclohexyl)picolinamide] | ≤ 100 nM | ≤ 40 nM | 
Cc1cc(C(=O)N[C@H]2CC[C@H](N)CC2)nc(-n2ccnc2)n1 [Example 27, N-((1r,4r)-4-aminocyclohexyl)-2-(1H-imidazol-1-yl)-6-methyl-pyrimidine-4-carboxamide Formate] | ≤ 1000 nM | ≤ 40 nM | 
Cc1cc(C(=O)N[C@H]2CC[C@H](NCC(F)(F)F)CC2)nc(-c2cncn2C)n1 [Example 4, 6-methyl-2-(1-methyl-1H-imidazol-5-yl)-N-((1r,4r)-4-((2,2,2-trifluoroethyl)amino)cyclohexyl)pyrimidine-4-carboxamide] |  | ≤ 40 nM | 
Cc1cc(C(=O)N[C@H]2CC[C@H](NCC(F)(F)F)CC2)nc(-c2cn[nH]c2)n1 [Example 14, 6-methyl-2-(1H-pyrazol-4-yl)-N-((1r,4r)-4-((2,2,2-trifluoroethyl)amino)cyclohexyl)pyrimidine-4-carboxamide] |  | ≤ 1000 nM | 
Cc1cc(C(=O)N[C@H]2CC[C@@H](N3CCC(F)(F)C3)CC2)nc(-n2ccnc2)n1 [Example 11, N-((1s,4s)-4-(3,3-difluoropyrrolidin-1-yl)cyclohexyl)-2-(1H-imidazol-1-yl)-6-methyl-pyrimidine-4-carboxamide] | ≤ 10000 nM |  | 
Cc1cc(C(=O)N[C@H]2CC[C@H](NCC(F)(F)F)CC2)nc(-n2cncc2C)n1 [Example 24, 6-methyl-2-(5-methyl-1H-imidazol-1-yl)-N-((1r,4r)-4-((2,2,2-trifluoroethyl)amino)cyclohexyl)pyrimidine-4-carboxamide] | ≤ 100 nM | ≤ 40 nM | 
CCc1cc(C(=O)N[C@H]2CC[C@H](NCC(F)(F)F)CC2)nc(-n2ccnc2)n1 [Example 6, 6-ethyl-2-(1H-imidazol-1-yl)-N-((1r,4r)-4-((2,2,2-trifluoroethyl)amino)cyclohexyl)pyrimidine-4-carboxamide] | ≤ 100 nM | ≤ 40 nM | 
O=C(N[C@H]1CC[C@H](NCC(F)F)CC1)c1cc(C2CC2)cc(-n2ccnc2)n1 [Example 16, 4-cyclopropyl-N-((1r,4r)-4-((2,2-difluoroethyl)amino)cyclohexyl)-6-(1H-imidazol-1-yl)picolinamide] | ≤ 1000 nM | ≤ 40 nM | 
Cc1cc(C(=O)N[C@H]2CC[C@H](NCC(F)F)CC2)nc(-c2cn[nH]c2)n1 [Example 15, N-((1r,4r)-4-((2,2-difluoroethyl)amino)cyclohexyl)-6-methyl-2-(1H-pyrazol-4-yl)pyrimidine-4-carboxamide] | ≤ 10000 nM | ≤ 1000 nM | 

From patent publication US20250019369A1, “N-(4-aminocyclohexyl)pyrimidine-4-carboxamide derivatives as CD38 inhibitors” (Cerevance, Inc., priority 2021, published 2025)
